Here are results for two molecules from patent US5663333A, “Substituted 1,4-diazapine caprolactams useful for treatment of HIV disease” (The DuPont Merck Pharmaceutical Company, priority 1993, dated 1997).

Where only a bound is given, the exact number is not on record here.

The target of one test is T1, HIV-1 protease (Human immunodeficiency virus type 1 group M subtype B, UniProt P04585).
T1 construct: synthetic gene coding for a single-chain tethered dimer of HIV protease; second copy of HIV protease joined in the same chain by a tether (single-chain tethered dimer); made in house
In words: HIV Protease Inhibition Assay - HPLC Method. The note with it: single-chain tethered dimer of HIV protease, pH 5.5. The format is biochemical. As for the experimental part: Protease: Inclusion bodies of E. coli harboring plasmid containing plasmid T1718R with a synthetic gene coding for a single-chain tethered dimer of HIV protease were prepared as described in Cheng et al. (Proc. Natl. Acad. Sci. USA, 87, 9660-9664, 1990). Active protease was prepared as described therein by extraction with 67% acetic acid, dilution 33-fold with water, dialysis against water and then against a "refolding buffer" consisting of 20 mM MES, 1 mM dithiothreitol and 10% glycerol. Protease was stored as a stock preparation at 10 uM in refolding buffer. […]
HPLC measurement of product formation: The product (aminobenzoyl-Ala--Thr--His--Gln--Val--Tyr) was separated from substrate on a Pharmacia MonoQ anion exchange column. […] Detection with a Shimadzu model RF535 fluorescence monitor was at 330 nm (excitation) and 430 (emission). The Ki was calculated from the formula Ki=I/(((Km+S-FA*S)/(FA*Km))-1) where I=inhibitory concentration, S=substrate concentration, FA=fractional activity=cm peak height with inhibitor/cm peak height without inhibitor, and Km=Michaelis constant=20 uM.
In the Tables herein the Ki values were determined using the assay conditions described above under HIV Protease Inhibition Assay-HPLC Method. […]

In test [1] the test system is HIV(3B) or HIV(RF) in MT-2 cells. In words: HIV Low Multiplicity Assay (whole cell infectivity assay). Type of test: cell-based. The conditions noted are these: Human immunodeficiency virus 1, MT2, 168 h, 7 days, XTT, 90% protection from virus induced cell death. As for the experimental part:
Materials: MT-2, a human T-Cell line, was cultured in RPMI medium supplemented with 5% (v/v) heat inactivated fetal calf serum (FCS), L-glutamine and gentamycin (GIBCO). Human immunodeficiency virus strains HIV (3B) and HIV (RF) were propagated in H-9 cells in RPMI with 5% FCS. XTT, benzene-sulfonic acid, 3,3'-[1-[(phenyl-amino) carbonyl]-3,4-tetrazolium]bis(4-methoxy-6-nitro)-, sodium salt, was obtained from Starks Associates, Inc.
Method: Test compounds were dissolved in dimethylsulfoxide to 5 mg/ml and serially diluted into RPMI medium to ten times the desired final concentration. MT-2 cells (5×10^4 /0.1 mL) were added to each well of a 96 well culture plate and 0.02 mL of the appropriate test compound solution was added to the cells such that each compound concentration was present in two wells. The cells and compounds were allowed to sit for 30 minutes at room temperature. […] The percentage of cells protected from virus induced cell death was determined by the degree of metabolism of the tetrazolium dye, XTT. In living cells, XTT was metabolized to a colored formazan product which was quantitated spectrophotometrically at 450 nm. […]
In the Tables herein the IC90 values were determined using the assay conditions described above under HIV Low Multiplicity Assay. […]
Background: Tetrazolium assays rely on reduction of a dye to a coloured formazan, in cell work by metabolically active cells.

As a reminder, the Ki is the dissociation constant of the complex between target and ligand, obtained from inhibition or displacement. Low values mean tighter binding, high ones weaker binding. By IC90 is commonly meant the point of the concentration-response curve where the effect stands at 90%. Read a low IC90 as greater potency. In turn, `O=C1N[C@H](Cc2ccccc2)[C@H](O)CN[C@H]1Cc1ccccc1` [Example 1] had a Ki on HIV-1 protease below 10 nM. Also, the IC90 in test [1] is below 10 µg/mL.

At HIV-1 protease, `O=C1N[C@H](Cc2ccccc2)[C@H](O)CN(Cc2ccccc2)[C@H]1Cc1ccccc1` [Example 24] showed a Ki of 10 to 1000 nM. The concentration for an effect of 90% (IC90) in test [1] was below 10 µg/mL.
